Measured values published in patent US20200121652A1, “COMPOUNDS HAVING CASPASE INHIBITORY ACTIVITY, PHARMACEUTICAL AGENT CONTAINING SAID COMPOUNDS AND FOR TREATING OR PREVENTING CORNEAL ENDOTHELIAL SYMPTOMS, DISORDERS, OR DISEASES, AND APPLICATION OF SAID PHARMACEUTICAL AGENT” (The Doshisha, priority 2017, published 2020).

Tests used:
Type in all cases: cell-based
[1] = test system: Fuchs' endothelial corneal dystrophy patient derived immortalized human corneal endothelial cells; test: Phase contrast microscope observation of cell damage after TGF-β2 stimulation (Examples 4-6); details: then TGF-β2 10 ng/ml 24 h; for disorder in corneal endothelial cells (phase contrast microscope): pretreated 24 h
Description: (§1) The medium was removed from the culture dish in which Fuchs' endothelial corneal dystrophy patient derived immortalized human corneal endothelial cells were being cultured, and the cells were supplemented with 1× PBS (−) that was preheated to 37° C., and were washed. This was repeated twice. The cells were supplemented with 1× PBS (−) again and incubated for 5 minutes at 37° C. (5% CO2). After removing the PBS (−), the cells were supplemented with 0.05% Trypsin-EDTA (nacalai tesque, 32778-34) and incubated for 5 minutes at 37° C. (5% CO2). The cells were then suspended in a medium, and collected by centrifugation at 1500 rpm for 3 minutes. DMEM (nacalai tesque, 08456-36) +10% FBS (Sigma, 13H467)+1% P/S (nacalai tesque, 26252-94) was used as the medium.
Fuchs' endothelial corneal dystrophy patient derived immortalized human corneal endothelial cells (lot: iFECD3-5) were seeded on a 12-well plate at a ratio of 5.0×10^4 cells per well, and cultured for 24 hours at 37° C. (5% CO2). DMEM+10% FBS+1% P/S was used as the medium.
(§2) After 24 hours, the medium was removed, fluticasone furoate (AXON MEDCHEM, 1172) was added so that the final concentration was each 0.0001, 0.0003, 0.001, 0.003, 0.01, 0.03, 0.1, 0.3, 1, and 3 μM, and the cells were cultured for 24 hours. DMEM+2% FBS+1% P/S was used as the medium.
After 24 hours, the medium was removed, fluticasone furoate was added together with 10 ng/ml Transforming Growth Factor-82 Human recombinant (WAKO, 200-19911) so that the final concentration was each 0.0001, 0.0003, 0.001, 0.003, 0.01, 0.03, 0.1, 0.3, 1, and 3 μM, and the cells were cultured for 24 hours. Medium: DMEM+2% FBS+1% P/S
After 24 hours, cell morphology and apoptosis were observed using a phase difference microscope.
In this example, TGF-β inhibiting activity of ZK216348 (AXON MEDCHEM, AXON2239), which is one of SEGRMs, was tested. The operation by a phase contrast microscope was carried out in the same manner as Example 4. 10 μM of ZK216348 was used as the final concentration.
After 24 hours, the medium was removed, ZK216348 was added together with 10 ng/ml Transforming Growth Factor-β2 Human recombinant (WAKO, 200-19911) so that the final concentration was […], and the cells were cultured for 24 hours. DMEM+2% FBS+1% P/S was used as the medium.

[2] = test system: Fuchs' endothelial corneal dystrophy patient derived immortalized human corneal endothelial cells; test: Cell Titer-Glo Luminescent Cell Viability Assay (Examples 4-5); details: all concentrations of 0.0001, 0.0003, 0.001, 0.003, 0.01, 0.03, 0.1, 0.3, 1, and 3 μM
Description: as §1
Fuchs' endothelial corneal dystrophy patient derived immortalized human corneal endothelial cells (lot: iFECD3-5) were seeded on a 96-well plate at a ratio of 7×10^3 cells per well, and cultured at 37° C. (5% CO2) until reaching confluence. DMEM+10% FBS+1% P/S was used as the medium. […]
Cell viability was analyzed using Cell Titer-Glo Luminescent Cell Viability Assay by the following procedure.
The medium was discarded to achieve 50 μl per well. […] After being left still, 80 μl was transferred to Assay plate (Corning, 3912, Assay plate 96 well, white polystyrene) and […] was measured using GloMax-Multi Detection System (Promega, E7051). […]

[3] = test system: Fuchs' endothelial corneal dystrophy patient derived immortalized human corneal endothelial cells; test: Caspase-Glo 3/7 Assay after pretreatment and TGF-β2 stimulation (Examples 4-5); details: for activity of Caspase 3/7: TGF-β2 10 ng/ml 24 h; for ratio of (caspase 3/7 activity)/(cell viability): agent concentration 0.0001 to 3 μM (FIG. 12)
Description: as §1
Fuchs' endothelial corneal dystrophy patient derived immortalized human corneal endothelial cells (lot: iFECD3-5) were seeded on a 96-well plate at a ratio of 7×10^3 cells per well, and cultured at 37° C. (5% CO2) until reaching confluence. DMEM+10% FBS+1% P/S was used as the medium.
as §2
After 24 hours, the medium was removed, 10 ng/ml Transforming Growth Factor-82 Human recombinant (WAKO, 200-19911) and fluticasone furoate were added so that the final concentration was each 0.0001, 0.0003, 0.001, 0.003, 0.01, 0.03, 0.1, 0.3, 1, and 3 μM, and the cells were cultured for 24 hours. DMEM+2% FBS+1% P/S was used as the medium.
After observation, measurement of caspase 3/7 activity by Caspase-Glo 3/7 Assay was carried out with the following procedure.
The medium was discarded to achieve 50 μl per well. 50 μl/well of CaspaseGlo 3/7 Assay Reagent (mixture of Caspase-Glo 3/7 Assay Buffer and Caspase-Glo 3/7 Assay Substrate) (Promega, G8091) solution was added so as to achieve 1:1 with the medium. The operations hereafter were carried out while being shaded. A shaker was used to mix the content well for 2 minutes at about 120 r/min to then be left still for 40 minutes at room temperature. After being left still, 80 μl was transferred to Assay plate (Corning, 3912, Assay plate 96 well, white polystyrene) and […] was measured using GloMax-Multi Detection System (Promega, E7051). Furthermore, 10 μM Z-VD-FMK (WAKO, 262-02061), which is a caspase inhibitor, was used as the positive control.
In this example, TGF-β inhibiting activity of fluticasone propionate (AXON MEDCHEM, 1404), which is one of SEGRAs, was tested. The test was conducted by the same procedure as Example 4.

| SMILES | free cells and disorder in corneal endothelial cells (phase contrast microscope) ([1]; pretreated, final concentration 10 μM) | cell viability [2] | activity of Caspase 3/7 ([3]; 0.01, 0.03, 0.1, 0.3, and 1 μM) | activity of Caspase 3/7 ([3]; in the order of 0.0001, 0.0003, 0.001, and 0.003 μM) | ratio of (caspase 3/7 activity)/(cell viability) [3] | disorder in corneal endothelial cells (phase contrast microscope) ([1]; 0.0001, 0.0003, 1, and 3 μM) | disorder in corneal endothelial cells (phase contrast microscope) ([1]; 0.001, 0.003, 0.01, 0.03, and 0.1 μM) | activity of Caspase 3/7 ([3]; 0.003, 0.01, 0.03, 0.1, 0.3, 1, and 3 μM) | activity of Caspase 3/7 ([3]; in the order of 0.0001, 0.0003, and 0.001 μM) | disorder in corneal endothelial cells (phase contrast microscope) ([1]; 0.0001 and 0.0003 μM) | disorder in corneal endothelial cells (phase contrast microscope) ([1]; 0.001, 0.003, 0.01, 0.03, 0.1, 0.3, 1, and 3 μM) |
| --- | --- | --- | --- | --- | --- | --- | --- | --- | --- | --- | --- |
| Cc1noc(=O)c2ccc(NC(=O)C(O)(CC(C)(C)c3cccc4c3OCC4)C(F)(F)F)cc12 (single isomer, unassigned; (+)) [ZK216348, (+)-4-(2,3-dihydro-1-benzofuran-7-yl)-2-hydroxy-4-methyl-N-(4-methyl-1-oxo-2,3-benzoxazine-6-yl)-2-(trifluoromethyl)pentanamide] | free cells were decreased and a disorder in corneal endothelial cells was suppressed | – | – | – | – | – | – | – | – | – | – |
| CCC(=O)O[C@]1(C(=O)SCF)[C@H](C)C[C@H]2[C@@H]3C[C@H](F)C4=CC(=O)C=C[C@]4(C)[C@@]3(F)[C@@H](O)C[C@@]21C [fluticasone propionate] | – | no significant difference from the Control group | almost the same as those in the Control group | decreased | below 0.8 | effect of suppressing a disorder in corneal endothelial cells was confirmed | effectively suppressed | – | – | – | – |
| C[C@@H]1C[C@H]2[C@@H]3C[C@H](F)C4=CC(=O)C=C[C@]4(C)[C@@]3(F)[C@@H](O)C[C@]2(C)[C@@]1(OC(=O)c1ccco1)C(=O)SCF [fluticasone furoate] | – | no significant difference from the Control group | – | – | below 0.8 | – | – | almost the same as those in the Control group | decreased | effect of suppressing a disorder in corneal endothelial cells was confirmed | effectively suppressed |
